Data taken from patent US12331054B2, “Perk inhibiting imidazolopyrazine compounds” (HiberCell, Inc., priority 2019, dated 2025).

Key:
[1] = biological target: Recombinant human EIF2AK3 (PERK) catalytic domain (amino acids 536-1116) (Homo sapiens (Human), UniProt Q9NZJ5); assay: PERK In Vitro Activity Assay (isolated), TR-FRET kinase assay; details: isolated PERK enzyme, 1.5 μM ATP, read-out: Biochemical IC50
Method in brief: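 IC50 values come from 4-parameter logistic fits of TR-FRET ratios, read after 90 min with 2 nM terbium-labelled phospho-eIF2a antibody following an EDTA stop (10 mM final). The kinase reaction ran 45 min at room temperature, started by adding PERK catalytic domain to 100–200 nM GFP-eIF2a in HEPES pH 7.5 buffer with MgCl2, EGTA and Brij-35.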

[2] = test system: eIF2α in HEK293-EGFP-eIF2α cells; assay: PERK Cellular Assay (HEK293-EGFP-eIF2α cells, tunicamycin-induced ER stress, TR-FRET); format: cell-based; details: tunicamycin 2 hours
Method in brief: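 After 2 h tunicamycin ([…]) stress following 30 min compound pretreatment at 37 °C, lysed HEK293-EGFP-eIF2α cells were read by TR-FRET. IC50 derived by 4-parameter logistic fitting of percent inhibition, DMSO-normalized, from 10-point 3-fold dilutions.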

Sequence of Recombinant human EIF2AK3 (PERK) catalytic domain (amino acids 536-1116) (Q9NZJ5 536-1116): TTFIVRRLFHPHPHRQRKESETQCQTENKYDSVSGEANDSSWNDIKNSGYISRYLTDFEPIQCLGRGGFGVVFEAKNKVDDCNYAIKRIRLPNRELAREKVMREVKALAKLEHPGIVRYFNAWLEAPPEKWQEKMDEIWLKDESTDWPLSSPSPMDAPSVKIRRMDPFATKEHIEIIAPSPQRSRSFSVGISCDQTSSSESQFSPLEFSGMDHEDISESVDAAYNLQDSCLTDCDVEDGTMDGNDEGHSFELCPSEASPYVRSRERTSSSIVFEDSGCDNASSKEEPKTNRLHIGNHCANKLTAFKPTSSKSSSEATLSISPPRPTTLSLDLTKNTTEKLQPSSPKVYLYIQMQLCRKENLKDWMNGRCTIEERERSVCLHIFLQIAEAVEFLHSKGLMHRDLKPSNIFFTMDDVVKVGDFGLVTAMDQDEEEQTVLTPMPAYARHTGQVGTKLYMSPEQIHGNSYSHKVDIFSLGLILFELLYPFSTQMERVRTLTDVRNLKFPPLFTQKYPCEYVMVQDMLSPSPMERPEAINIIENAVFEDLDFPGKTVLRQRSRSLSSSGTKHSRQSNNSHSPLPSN

SMILES	IC50 [1]	IC50 [2]
[2H]C([2H])([2H])c1nc(-c2cnc(NC(=O)C(O)c3cccc(F)c3)cc2C)c2c(N)ncc(C)n12 (centres unmarked) [Example 180, N-[5-[8-amino-5-methyl-3-(trideuteriomethyl)imidazo[1,5-a]pyrazin-1-yl]-4-methyl-2-pyridyl]-2-(3-fluorophenyl)-2-hydroxy-acetamide]	0.026 to 0.05 µM	0.501 to 1 µM
[2H]C([2H])([2H])c1nc(-c2ccc(NC(=O)C(O)c3cccc(F)c3)c(F)c2F)c2c(N)ncc(C(F)(F)F)n12 (centres unmarked) [Example 134, N-[4-[8-amino-3-(trideuteriomethyl)-5-(trifluoromethyl)imidazo[1,5-a]pyrazin-1-yl]-2,3-difluoro-phenyl]-2-(3-fluorophenyl)-2-hydroxy-acetamide]	0.001 to 0.025 µM	0.001 to 0.025 µM
[2H]C([2H])([2H])c1nc(-c2cnc(NC(=O)C(O)c3cccc(F)c3)cc2C)c2c(N)nc(C)cn12 (centres unmarked) [Example 179, N-[5-[8-amino-6-methyl-3-(trideuteriomethyl)imidazo[1,5-a]pyrazin-1-yl]-4-methyl-2-pyridyl]-2-(3-fluorophenyl)-2-hydroxy-acetamide]	0.001 to 0.025 µM	0.251 to 0.5 µM
[2H]C([2H])([2H])c1nc(-c2ccc(NC(=O)C(O)c3cccc(C(F)(F)F)c3)c(F)c2F)c2c(N)ncc(C(F)(F)F)n12 (centres unmarked) [Example 148, N-[4-[8-amino-3-(trideuteriomethyl)-5-(trifluoromethyl)imidazo[1,5-a]pyrazin-1-yl]-2,3-difluoro-phenyl]-2-hydroxy-2-[3-(trifluoromethyl)phenyl]acetamide]	0.001 to 0.025 µM	0.001 to 0.025 µM
[2H]C([2H])([2H])c1nc(-c2ccc(NC(=O)C(O)c3cccc(C(F)(F)F)c3)c(F)c2F)c2c(N)nc(C)cn12 (centres unmarked) [Example 151, N-[4-[8-amino-6-methyl-3-(trideuteriomethyl)imidazo[1,5-a]pyrazin-1-yl]-2,3-difluoro-phenyl]-2-hydroxy-2-[3-(trifluoromethyl)phenyl]acetamide]	0.051 to 0.1 µM	0.251 to 0.5 µM
[2H]C([2H])([2H])c1nc(-c2ccc(NC(=O)C(O)c3cc(F)cc(C(F)(F)F)c3)cc2C)c2c(N)ncc(C(F)(F)F)n12 (centres unmarked) [Example 60, N-[4-[8-amino-3-(trideuteriomethyl)-5-(trifluoromethyl)imidazo[1,5-a]pyrazin-1-yl]-3-methyl-phenyl]-2-[3-fluoro-5-(trifluoromethyl)phenyl]-2-hydroxy-acetamide]	0.001 to 0.025 µM	0.026 to 0.05 µM
[2H]C([2H])([2H])c1nc(-c2ccc(NC(=O)C(O)c3cccc(F)c3)c(F)c2)c2c(N)ncc(C)n12 (centres unmarked) [Example 122, N-[4-[8-amino-5-methyl-3-(trideuteriomethyl)imidazo[1,5-a]pyrazin-1-yl]-2-fluoro-phenyl]-2-(3-fluorophenyl)-2-hydroxy-acetamide]	0.026 to 0.05 µM	0.251 to 0.5 µM
[2H]C([2H])([2H])c1nc(-c2ccc(NC(=O)C(O)c3cccc(F)c3)c(F)c2)c2c(N)ncc(C)n12 (centres unmarked) [Example 123, N-[4-[8-amino-5-methyl-3-(trideuteriomethyl)imidazo[1,5-a]pyrazin-1-yl]-2-fluoro-phenyl]-2-(3-fluorophenyl)-2-hydroxy-acetamide]	0.001 to 0.025 µM	0.001 to 0.025 µM
[2H]C([2H])([2H])c1nc(-c2ccc(NC(=O)C(O)c3cc(F)cc(C(F)(F)F)c3)c(F)c2F)c2c(N)ncc(C(F)(F)F)n12 (centres unmarked) [Example 162, N-[4-[8-amino-3-(trideuteriomethyl)-5-(trifluoromethyl)imidazo[1,5-a]pyrazin-1-yl]-2,3-difluoro-phenyl]-2-[3-fluoro-5-(trifluoromethyl)phenyl]-2-hydroxy-acetamide]	0.001 to 0.025 µM	0.001 to 0.025 µM
[2H]C([2H])([2H])c1nc(-c2ccc(NC(=O)C(O)c3cccc(Cl)c3)cc2F)c2c(N)ncc(C(F)(F)F)n12 (centres unmarked) [Example 82, N-[4-[8-amino-3-(trideuteriomethyl)-5-(trifluoromethyl)imidazo[1,5-a]pyrazin-1-yl]-3-fluoro-phenyl]-2-(3-chlorophenyl)-2-hydroxy-acetamide]	0.001 to 0.025 µM	0.001 to 0.025 µM
Cc1cn2c(C)nc(-c3ccc(NC(=O)C(O)c4cccc(F)c4)c(F)c3F)c2c(N)n1 (centres unmarked) [Example 129, N-(4-(8-amino-3,6-dimethyl-imidazo[1,5-a]pyrazin-1-yl)-2,3-difluoro-phenyl)-2-(3-fluorophenyl)-2-hydroxyacetamide]	0.501 to 1 µM	> 5 µM
Cc1cc(NC(=O)C(O)c2cccc(F)c2)ccc1-c1nc(C)n2c(Cl)cnc(N)c12 (centres unmarked) [Example 29, N-(4-(8-amino-5-chloro-3-methylimidazo[1,5-a]pyrazin-1-yl)-3-methylphenyl)-2-(3-fluorophenyl)-2-hydroxyacetamide]	0.001 to 0.025 µM	0.026 to 0.05 µM
[2H]C([2H])([2H])c1nc(-c2ccc(NC(=O)C(O)c3cccc(F)c3)cc2C)c2c(N)ncc(C(F)(F)F)n12 (centres unmarked) [Example 31, N-[4-[8-amino-3-(trideuteriomethyl)-5-(trifluoromethyl)imidazo[1,5-a]pyrazin-1-yl]-3-methyl-phenyl]-2-(3-fluorophenyl)-2-hydroxy-acetamide]	0.001 to 0.025 µM	0.251 to 0.5 µM
Cc1cccc(C(O)C(=O)Nc2ccc(-c3nc(C)n4c(C)cnc(N)c34)c(F)c2)c1 (centres unmarked) [Example 89, N-(4-(8-amino-3,5-dimethylimidazo [1,5-a]pyrazin-1-yl)-3-fluoro-phenyl)-2-hydroxy-2-(m-tolyl)acetamide]	0.001 to 0.025 µM	0.051 to 0.1 µM
[2H]C([2H])([2H])c1nc(-c2ccc(NC(=O)C(O)c3cccc(Cl)c3)cc2F)c2c(N)nc(C)cn12 (centres unmarked) [Example 80, N-[4-[8-amino-6-methyl-3-(trideuteriomethyl)imidazo[1,5-a]pyrazin-1-yl]-3-fluoro-phenyl]-2-(3-chlorophenyl)-2-hydroxy-acetamide]	0.001 to 0.025 µM	0.001 to 0.025 µM
[2H]C([2H])([2H])c1nc(-c2ccc(NC(=O)C(O)c3cc(F)cc(C(F)(F)F)c3)c(F)c2F)c2c(N)nc(C)cn12 (centres unmarked) [Example 167, N-[4-[8-amino-6-methyl-3-(trideuteriomethyl)imidazo[1,5-a]pyrazin-1-yl]-2,3-difluoro-phenyl]-2-[3-fluoro-5-(trifluoromethyl)phenyl]-2-hydroxy-acetamide]	0.026 to 0.05 µM	0.101 to 0.25 µM
Cc1cc(NC(=O)C(O)c2cccc(F)c2)ccc1-c1nc(C)n2c(C)cnc(N)c12 (centres unmarked) [Example 9, N-(4-(8-amino-3,5-dimethylimidazo[1,5-a]pyrazin-1-yl)-3-methylphenyl)-2-(3-fluorophenyl)-2-hydroxyacetamide]	0.051 to 0.1 µM	0.251 to 0.5 µM
[2H]C([2H])([2H])c1nc(-c2ccc(NC(=O)C(O)c3cccc(C(F)(F)F)c3)c(F)c2F)c2c(N)ncc(Cl)n12 (centres unmarked) [Example 153, N-[4-[8-amino-5-chloro-3-(trideuteriomethyl)imidazo[1,5-a]pyrazin-1-yl]-2,3-difluoro-phenyl]-2-hydroxy-2-[3-(trifluoromethyl)phenyl]acetamide]	0.026 to 0.05 µM	0.101 to 0.25 µM
[2H]C([2H])([2H])c1nc(-c2ccc(NC(=O)C(O)c3cccc(F)c3)cc2F)c2c(N)ncc(Cl)n12 (centres unmarked) [Example 74, N-[4-[8-amino-5-chloro-3-(trideuteriomethyl)imidazo[1,5-a]pyrazin-1-yl]-3-fluoro-phenyl]-2-(3-fluorophenyl)-2-hydroxy-acetamide]	0.001 to 0.025 µM	0.001 to 0.025 µM
[2H]C([2H])([2H])c1nc(-c2ccc(NC(=O)C(O)c3cccc(Cl)c3)cc2F)c2c(N)ncc(C)n12 (centres unmarked) [Example 85, N-[4-[8-amino-5-methyl-3-(trideuteriomethyl)imidazo[1,5-a]pyrazin-1-yl]-3-fluoro-phenyl]-2-(3-chlorophenyl)-2-hydroxy-acetamide]	0.001 to 0.025 µM	0.051 to 0.1 µM
[2H]C([2H])([2H])c1nc(-c2ccc(NC(=O)C(O)c3cccc(F)c3)nc2C)c2c(N)ncc(C)n12 (centres unmarked) [Example 173, N-[5-[8-amino-5-methyl-3-(trideuteriomethyl)imidazo[1,5-a]pyrazin-1-yl]-6-methyl-2-pyridyl]-2-(3-fluorophenyl)-2-hydroxy-acetamide]	0.001 to 0.025 µM	0.026 to 0.05 µM
Cc1cc(NC(=O)C(O)c2cccc(F)c2)ccc1-c1nc(C)n2c(C)cnc(N)c12 (centres unmarked) [Example 8, N-(4-(8-amino-3,5-dimethylimidazo[1,5-a]pyrazin-1-yl)-3-methylphenyl)-2-(3-fluorophenyl)-2-hydroxyacetamide]	0.001 to 0.025 µM	0.026 to 0.05 µM
[2H]C([2H])([2H])c1nc(-c2ccc(NC(=O)C(O)c3cc(F)cc(C(F)(F)F)c3)cc2C)c2c(N)ncc(C)n12 (centres unmarked) [Example 54, N-[4-[8-amino-5-methyl-3-(trideuteriomethyl)imidazo[1,5-a]pyrazin-1-yl]-3-methyl-phenyl]-2-[3-fluoro-5-(trifluoromethyl)phenyl]-2-hydroxy-acetamide]	0.001 to 0.025 µM	0.001 to 0.025 µM
Cc1cc(NC(=O)C(O)c2cccc(F)c2)c(F)cc1-c1nc(C)n2c(C)cnc(N)c12 (centres unmarked) [Example 64, N-(4-(8-amino-3,5-dimethylimidazo [1,5-a]pyrazin-1-yl)-2-fluoro-5-methylphenyl)-2-(3-fluorophenyl)-2-hydroxy-acetamide]	0.051 to 0.1 µM	0.501 to 1 µM
[2H]C([2H])([2H])c1nc(-c2ccc(NC(=O)C(O)c3cccc(F)c3)cc2F)c2c(N)ncc(C(F)(F)F)n12 (centres unmarked) [Example 77, N-[4-[8-amino-3-(trideuteriomethyl)-5-(trifluoromethyl)imidazo[1,5-a]pyrazin-1-yl]-3-fluoro-phenyl]-2-(3-fluorophenyl)-2-hydroxy-acetamide]	0.001 to 0.025 µM	0.051 to 0.1 µM
